In patent US20260284028A1, “FUSED BICYCLIC HETEROCYCLYL COMPOUNDS AS CCR4 MODULATORS” (AURIGENE ONCOLOGY LIMITED, priority 2023, published 2026):
Read-outs that look alike come from different tables or passages of the source.

Molecular target: T1, CCR4 (Homo sapiens, UniProt P51679)
T1 construct: expressed in transfected cells; host or cells: CHO-K1
T1 sequence (P51679 1-360): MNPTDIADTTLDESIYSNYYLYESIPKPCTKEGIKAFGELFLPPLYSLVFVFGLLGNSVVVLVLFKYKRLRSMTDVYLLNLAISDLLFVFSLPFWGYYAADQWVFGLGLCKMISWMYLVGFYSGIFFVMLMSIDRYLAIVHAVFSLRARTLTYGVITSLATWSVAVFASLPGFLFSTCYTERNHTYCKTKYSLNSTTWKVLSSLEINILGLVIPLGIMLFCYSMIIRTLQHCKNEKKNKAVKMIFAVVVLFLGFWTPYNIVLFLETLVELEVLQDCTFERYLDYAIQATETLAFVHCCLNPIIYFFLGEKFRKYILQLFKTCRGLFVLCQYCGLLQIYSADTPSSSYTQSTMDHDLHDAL
Experiment: β-Arrestin recruitment assay (CHO-K1 CCR4 β-Arrestin cells stimulated with recombinant human CCL22)
Assay type: cell-based
Conditions: CCL22 10 nM stimulation; for IC50: read-out: CCR4 antagonistic activity IC50 (μM) in range; for inhibition: read-out: % inhibition at 5 μM/30 μM (% E-Max)
Protocol: CHO-K1 CCR4 β-Arrestin cells were seeded and incubated overnight at 37° C. in a CO2 incubator for adherence. Next day, cells were pretreated with various concentrations of CCR4 modulators for 30 mins at 37° C. The cells were stimulated with recombinant human CCL22 (10 nM) and further incubated for 90 mins. Working detection solution was added and incubated at room temperature for 1 hour after which the chemiluminescent signal was read using a luminometer.
Exemplary compounds of the present application were screened by the above-mentioned assay and the results were tabulated.

[1] = CHO-K1, read-out: % inhibition 30 μM (% E-Max)

SMILES | IC50 | inhibition [1] | inhibition (CHO-K1, at 30 μM) | % inhibition at 5 μM/30 μM (% E-Max)
C[C@@H](Nc1cc(Cl)cc2nc(N3CC([C@H]4CCCN([C@H]5C[C@](C)(C(=O)O)C5)C4)C3)oc12)c1ccc(Cl)cc1Cl [Compound 7] | 0.25 to 0.5 µM | – | 101% | –
C[C@@H](Nc1c(F)ccc2nc(N3CC([C@H]4CCCN([C@H]5C[C@](C)(C(=O)O)C5)C4)C3)sc12)c1ncc(F)cc1F [Compound 39] | – | 39% | – | –
C[C@@H](Nc1c(F)cnc2nc(N3CC([C@H]4CCCN([C@H]5C[C@](C)(C(=O)O)C5)C4)C3)sc12)c1ncc(Cl)cc1Cl (single isomer, unassigned) [Compound 42] | 0.25 to 0.5 µM | 103% | – | –
C[C@@H](Nc1c(F)ccc2nc(N3CC([C@H]4CCCN([C@H]5C[C@](C)(C(=O)O)C5)C4)C3)sc12)c1ncc(Cl)cc1Cl [Compound 37, (1R,3r)-3-((R)-3-(1-(7-(((S)-1-(3,5-dichloropyridin-2-yl)ethyl)amino)-6-fluorobenzo[d]thiazol-2-yl)azetidin-3-yl)piperidin-1-yl)-1-methylcyclobutane-1-carboxylic acid] | > 0.5 µM | – | – | 78% at 5 μM
C[C@@H](Nc1cccc2nc(N3CC([C@H]4CCCN([C@H]5C[C@](C)(C(=O)O)C5)C4)C3)n(C)c12)c1ccc(Cl)cc1Cl [Compound 22] | – | – | 29.5% | –
C[C@@H](Nc1c(F)ccc2nc(N3CC(C4CN([C@H]5C[C@](C)(C(=O)O)C5)CCO4)C3)sc12)c1ccc(Cl)cc1Cl (single isomer, unassigned) [Compound 28] | – | – | – | 72% at 5 μM
C[C@@H](Nc1c(Cl)ccc2nc(N3CC([C@H]4CCCN(C5(CC(=O)O)CCC5)C4)C3)oc12)c1ccc(Cl)cc1Cl [Compound 24] | – | 61% | – | –
C[C@@H](Nc1cncc2nc(N3CC([C@H]4CCCN([C@H]5C[C@](C)(C(=O)O)C5)C4)C3)oc12)c1ccc(Cl)cc1Cl [Compound 15] | 0.25 to 0.5 µM | 101% | – | –
C[C@@H](Nc1cccc2nc(N3CC([C@H]4CCCN([C@H]5C[C@](C)(C(=O)O)C5)C4)C3)sc12)c1ccc(Cl)cc1Cl [Compound 8] | 0.25 to 0.5 µM | 102% | – | –
C[C@@H](Nc1nccc2nc(N3CC([C@H]4CCCN([C@H]5C[C@](C)(C(=O)O)C5)C4)C3)oc12)c1ccc(Cl)cc1Cl [Compound 14] | 0.25 to 0.5 µM | 96.4% | – | –
C[C@@H](Nc1c(Cl)cnc2nc(N3CC([C@H]4CCCN([C@H]5C[C@](C)(C(=O)O)C5)C4)C3)oc12)c1ccc(Cl)cc1Cl [Compound 17] | 0.25 to 0.5 µM | 102% | – | –
CC(Nc1c(OC(F)F)ccc2nc(N3CC([C@H]4CCCN([C@H]5C[C@](C)(C(=O)O)C5)C4)C3)sc12)c1ncc(Cl)cc1Cl (some centres unmarked) [Compound 47] | > 0.5 µM | 93% | – | –
CC(Nc1c(F)cnc2nc(N3CC([C@H]4CCCN([C@H]5C[C@](C)(C(=O)O)C5)C4)C3)sc12)c1ncc(F)cc1F (some centres unmarked) [Compound 44] | 0.25 to 0.5 µM | 99% | – | –
CC(Nc1c(F)ccc2nc(N3CC([C@H]4CCCN([C@H]5C[C@](C)(C(=O)O)C5)C4)C3)sc12)c1ncc(F)cc1F (some centres unmarked) [Compound 38] | 0.25 to 0.5 µM | 81% | – | –
C[C@H](Nc1c(F)cnc2nc(N3CC([C@H]4CCCN([C@H]5C[C@](C)(C(=O)O)C5)C4)C3)sc12)c1ncc(Cl)cc1Cl (single isomer, unassigned) [Compound 43] | > 0.5 µM | 95% | – | –
C[C@@H](Nc1c(OC(F)F)ccc2nc(N3CC([C@H]4CCCN([C@H]5C[C@](C)(C(=O)O)C5)C4)C3)sc12)c1ncc(F)cc1F (single isomer, unassigned) [Compound 51] | > 0.5 µM | – | 77% | –
C[C@@H](Nc1c(F)ccc2nc(N3CC(C4CN([C@H]5C[C@](C)(C(=O)O)C5)CCO4)C3)sc12)c1ccc(Cl)cc1Cl (single isomer, unassigned) [Compound 27] | 0.25 to 0.5 µM | – | – | 99% at 5 μM
C[C@@H](Nc1c(C(N)=O)ccc2nc(N3CC([C@H]4CCCN([C@H]5C[C@](C)(C(=O)O)C5)C4)C3)oc12)c1ccc(Cl)cc1Cl [Compound 19] | 0.25 to 0.5 µM | 93.8% | – | –

Next, values leading:

IC50 | inhibition [1] | inhibition (CHO-K1, at 30 μM) | % inhibition at 5 μM/30 μM (% E-Max) | SMILES
0.25 to 0.5 µM | 99% | – | – | C[C@H](Nc1c(F)cnc2nc(N3CC([C@H]4CCCN([C@H]5C[C@](C)(C(=O)O)C5)C4)C3)sc12)c1ncc(F)cc1F (single isomer, unassigned) [Compound 46]
< 0.25 µM | – | 103% | – | C[C@@H](Nc1c(Cl)ccc2nc(N3CC([C@H]4CCCN([C@H]5C[C@](C)(C(=O)O)C5)C4)C3)oc12)c1ccc(Cl)cc1Cl [Compound 1, (1R,3r)-3-((R)-3-(1-(6-Chloro-7-(((R)-1-(2,4-dichlorophenyl)ethyl)amino)benzo[d]oxazol-2-yl)azetidin-3-yl)piperidin-1-yl)-1-methylcyclobutane-1-carboxylic acid]
< 0.25 µM | 103% | – | – | C[C@@H](Nc1c(F)ncc2nc(N3CC([C@H]4CCCN([C@H]5C[C@](C)(C(=O)O)C5)C4)C3)sc12)c1ccc(Cl)cc1Cl [Compound 30]
< 0.25 µM | – | – | 103% at 5 μM | C[C@@H](Nc1c(F)ccc2nc(N3CC([C@H]4CCCN([C@H]5C[C@](C)(C(=O)O)C5)C4)C3)sc12)c1ncc(Cl)cc1Cl [Compound 36, (1R,3r)-3-((R)-3-(1-(7-(((R)-1-(3,5-dichloropyridin-2-yl)ethyl)amino)-6-fluorobenzo[d]thiazol-2-yl)azetidin-3-yl)piperidin-1-yl)-1-methylcyclobutane-1-carboxylic acid]
< 0.25 µM | 103% | – | – | Cc1cc2nc(N3CC([C@H]4CCCN([C@H]5C[C@](C)(C(=O)O)C5)C4)C3)oc2c(N[C@H](C)c2ccc(Cl)cc2Cl)c1Cl [Compound 9]
< 0.25 µM | 102% | – | – | CC(Nc1c(F)ccc2nc(N3CC([C@H]4CCCN([C@H]5C[C@](C)(C(=O)O)C5)C4)C3)sc12)c1ncc(Cl)cc1Cl (mixture of isomers) [Compound 35, (1R,3r)-3-((3R)-3-(1-(7-((1-(3,5-dichloropyridin-2-yl)ethyl)amino)-6-fluorobenzo[d]thiazol-2-yl)azetidin-3-yl)piperidin-1-yl)-1-methylcyclobutane-1-carboxylic acid]
< 0.25 µM | 101% | – | – | C[C@@H](Nc1c(C(F)(F)F)ccc2nc(N3CC([C@H]4CCCN([C@H]5C[C@](C)(C(=O)O)C5)C4)C3)oc12)c1ccc(Cl)cc1Cl [Compound 13]
< 0.25 µM | 103% | – | – | C[C@@H](Nc1ccnc2nc(N3CC([C@H]4CCCN([C@H]5C[C@](C)(C(=O)O)C5)C4)C3)oc12)c1ccc(Cl)cc1Cl [Compound 16]
< 0.25 µM | 103% | – | – | Cc1nc(N[C@H](C)c2ccc(Cl)cc2Cl)c2sc(N3CC([C@H]4CCCN([C@H]5C[C@](C)(C(=O)O)C5)C4)C3)nc2n1 [Compound 33]
< 0.25 µM | 103% | – | – | C[C@@H](Nc1c(F)ccc2nc(N3CC([C@H]4CCCN([C@H]5C[C@](C)(C(=O)O)C5)C4)C3)sc12)c1ccc(F)cc1F [Compound 29]
< 0.25 µM | 104% | – | – | C[C@@H](Nc1c(Cl)ccc2nc(N3CC([C@H]4CCCN([C@H]5C[C@](C)(C(=O)O)C5)C4)C3)sc12)c1ccc(Cl)cc1Cl [Compound 23]
< 0.25 µM | 101% | – | – | C[C@@H](Nc1c(OC(F)F)ccc2nc(N3CC([C@H]4CCCN([C@H]5C[C@](C)(C(=O)O)C5)C4)C3)oc12)c1ccc(Cl)cc1Cl [Compound 11]
